Data as given in PMC12298827, “Subchronic Toxicities of Four Per- and Polyfluoroalkyl Substances (PFASs) by Oral Exposure in Sprague–Dawley Rats” (Toxics, 2025).

Tested on: male and female Sprague–Dawley rats
Assay: 90-day subchronic oral gavage toxicity study
Format: in vivo, rat
Experimental: Subchronic (90-day) studies were performed in accordance with current U.S. EPA’s Toxic Substances Control Act Good Laboratory Practice (GLP) Standards, with the following two general exceptions to the GLP guidelines: Analysis of the dose formulations was conducted according to RTI-approved Standard Operating Procedures, and corn oil (the vehicle) was not characterized (certificate of analysis from the vendor is available in the appendices to the final reports). Male and female Sprague–Dawley rats (five dose levels plus a control, n = 10/sex/dose group, corn oil vehicle dose volume of 3 mL/kg; oral gavage) were used in these studies, and the rats were euthanized on SD 91. The dose levels for PFHI were 0, 12.5, 25, 50, 100, and 200 mg/kg-day. The dose levels for MHFPK were 0, 18.8, 37.5, 75, 150, and 300 mg/kg-day. The dose levels for PFNAC were 0, 0.1, 0.3, 1.0, 3.0, and 10 mg/kg-day for male rats and 0, 0.3, 1.0, 3.0, 10, and 30 mg/kg-day for female rats. For CTFPA, the dose levels were 0, 1.9, 3.8. 7.5, 15, and 30 mg/kg-day for male rats and 0, 6.3, 12.5, 25, 50, and 100 mg/kg-day for female rats. For each PFAS, three batches of dosing solution were prepared. The time between the batch preparation of the dosing solutions ranged between 29 and 39 days. Blood samples were collected from all the rats at termination for serum chemistry, hematology, coagulation, and the analysis of the parent PFAS chemical in the plasma. In vivo data collection and further detail on the endpoints examined postmortem are described below.
The rats were observed twice daily for morbidity and mortality throughout the study period. At least once prior to randomization to test groups and weekly thereafter, the rats were physically examined, and bodyweights were obtained. Feed consumption was quantified weekly starting on SD 1.
Neurotoxicity was evaluated using the functional observational battery (FOB) and measuring locomotor activity (LMA) 2–4 h post dosing on SDs 78–80 and 80–84, respectively. For both the 14- and 90-day studies, an ophthalmologic examination was conducted prior to randomization and near the end of the study, using indirect ophthalmoscopy and slit–lamp biomicroscopy (as needed) after the administration of a mydriatic solution.
Hematology, biochemistry, and coagulation endpoints were measured at the termination of the study. A Siemens Advia 2120i hematology analyzer (Siemens Healthineers, Erlangen, Germany) was used to measure (or calculate) the parameters related to the complete blood count, leukocyte differential count, and reticulocyte count. The hematology parameters are listed and described in Table 2. The prothrombin time […] and activated partial thromboplastin time (APTT) were measured using an Instrumentation Laboratory (Bedford, MA, USA) ACL Elite Pro coagulation analyzer (laser–nephelometric centrifugal method).
At necropsy, the rats were visually examined for external abnormalities and organ weights (absolute and relative to the BW and brain weight), which were recorded (paired organs weighed together). The tissues were preserved in 10% neutral buffered formalin (NBF), except for the ocular tissues, testes, and epididymides, which were preserved in modified Davidson’s fixative and later transferred to 10% NBF. Bone marrow smears were prepared from the femurs, and the slides were air-dried, fixed in methanol, stained, and stored at room temperature for possible future evaluation. The preserved tissues were embedded in paraffin, sectioned, stained with hematoxylin and eosin, and examined by a board-certified veterinary pathologist.
Statistical analysis was performed using Provantis™ Version 10 or greater (Instem LSS, Limited; Stone, Staffordshire, UK). Differences among the treatment groups compared to the control were evaluated using one-way analysis of variance (ANOVA) if the underlying assumptions of a normal distribution (Shapiro–Wilk test) and the homogeneity of the variance (Levene’s test) were satisfied. […]

FC(F)(F)C(F)(F)C(F)(F)C(F)(F)CCI [PFHI, 1H,1H,2H,2H-Perfluorohexyl iodide]
Liver/Brain Weight (female, 200 mg/kg-day): 481%
MPV (female, 200 mg/kg-day): 7.68 ± 0.44 fL
PT (female, 200 mg/kg-day): 13.98 s
Total BW change (female, 200 mg/kg-day): 108.57 g
Total Food Consumed (female, 200 mg/kg-day): 1566 g
BMD10, absolute kidney weight increase (male): 122 mg/kg-day
BMD10, relative kidney weight increase (male): 69.7 mg/kg-day
BMDL, absolute kidney weight increase (male): 83.8 mg/kg-day
BMDL, relative kidney weight increase (male): 56.6 mg/kg-day
LOEL, absolute kidney weight increase (male): 200 mg/kg-day
LOEL, absolute liver weight increase (male): 100 mg/kg-day
LOEL, relative kidney weight increase (male): 100 mg/kg-day
LOEL, relative liver weight increase (male): 25 mg/kg-day
NOEL, absolute kidney weight increase (male): 100 mg/kg-day
NOEL, absolute liver weight increase (male): 50 mg/kg-day
NOEL, relative kidney weight increase (male): 50 mg/kg-day
NOEL, relative liver weight increase (male): 12.5 mg/kg-day
% BW Gain (male, 12.5 mg/kg-day): 114.45%
% Diff, % BW Gain (male, 12.5 mg/kg-day): 0.87%
% Diff, Total BW change (male, 12.5 mg/kg-day): -1.78%
% Diff, Total Food Consumed (male, 12.5 mg/kg-day): -6.69%
A/G (male, 12.5 mg/kg-day): 0.91±0.04 ratio
ALB (male, 12.5 mg/kg-day): 3.42 ± 0.25 g/dL
ALPi (male, 12.5 mg/kg-day): 102.9±14.1 U/L
APTT (male, 12.5 mg/kg-day): 23.37 s
BUN (male, 12.5 mg/kg-day): 14.8 ± 2.0 mg/dL
CHOL (male, 12.5 mg/kg-day): 87.5 ± 9.2 mg/dL
GLOB (male, 12.5 mg/kg-day): 3.77 ± 0.18 g/dL
GLUC (male, 12.5 mg/kg-day): 199.1 ± 29.5 mg/dL
HCT (male, 12.5 mg/kg-day): 51.12±1.63%
HGB (male, 12.5 mg/kg-day): 15.92 ± 0.40 g/dL
Kidney Weight (male, 12.5 mg/kg-day): 3.04 g
Kidney/Body Weight (male, 12.5 mg/kg-day): 0.51%
Kidney/Brain Weight (male, 12.5 mg/kg-day): 140%
Liver Weight (male, 12.5 mg/kg-day): 15.35 g
Liver/Body Weight (male, 12.5 mg/kg-day): 2.59%
Liver/Brain Weight (male, 12.5 mg/kg-day): 706%
MPV (male, 12.5 mg/kg-day): 7.20 ± 0.26 fL
PT (male, 12.5 mg/kg-day): 14.91 s
Total BW change (male, 12.5 mg/kg-day): 319.83 g
Total Food Consumed (male, 12.5 mg/kg-day): 2217 g
% BW Gain (male, 25 mg/kg-day): 112.88%
% Diff, % BW Gain (male, 25 mg/kg-day): -0.52%
% Diff, Total BW change (male, 25 mg/kg-day): -1.33%
% Diff, Total Food Consumed (male, 25 mg/kg-day): -4.60%
A/G (male, 25 mg/kg-day): 0.88±0.10 ratio
ALB (male, 25 mg/kg-day): 3.35 ± 0.14 g/dL
ALPi (male, 25 mg/kg-day): 112.3±29.5 U/L
APTT (male, 25 mg/kg-day): 29.06 s
BUN (male, 25 mg/kg-day): 15.3 ± 2.1 mg/dL
CHOL (male, 25 mg/kg-day): 101.5 ± 15.8 mg/dL
GLOB (male, 25 mg/kg-day): 3.84 ± 0.36 g/dL
GLUC (male, 25 mg/kg-day): 204.5 ± 34.6 mg/dL
HCT (male, 25 mg/kg-day): 50.59±1.92%
HGB (male, 25 mg/kg-day): 15.67 ± 0.55 g/dL
Kidney Weight (male, 25 mg/kg-day): 3.20 g
Kidney/Body Weight (male, 25 mg/kg-day): 0.54%
Kidney/Brain Weight (male, 25 mg/kg-day): 147%
Liver Weight (male, 25 mg/kg-day): 16.98 g
Liver/Body Weight (male, 25 mg/kg-day): 2.85%
Liver/Brain Weight (male, 25 mg/kg-day): 780%
MPV (male, 25 mg/kg-day): 7.13 ± 0.21 fL
PT (male, 25 mg/kg-day): 14.69 s
Total BW change (male, 25 mg/kg-day): 321.29 g
Total Food Consumed (male, 25 mg/kg-day): 2266 g
% BW Gain (male, 50 mg/kg-day): 108.23%
% Diff, % BW Gain (male, 50 mg/kg-day): -4.61%
% Diff, Total BW change (male, 50 mg/kg-day): -5.67%
% Diff, Total Food Consumed (male, 50 mg/kg-day): -6.15%
A/G (male, 50 mg/kg-day): 0.91±0.04 ratio
ALB (male, 50 mg/kg-day): 3.41 ± 0.12 g/dL
ALPi (male, 50 mg/kg-day): 103.3±31.6 U/L
APTT (male, 50 mg/kg-day): 20.03 s
BUN (male, 50 mg/kg-day): 15.4 ± 1.8 mg/dL
CHOL (male, 50 mg/kg-day): 100.2 ± 18.8 mg/dL
GLOB (male, 50 mg/kg-day): 3.74 ± 0.13 g/dL
GLUC (male, 50 mg/kg-day): 196.8 ± 40.7 mg/dL
HCT (male, 50 mg/kg-day): 49.78±1.69%
HGB (male, 50 mg/kg-day): 15.53 ± 0.59 g/dL
Kidney Weight (male, 50 mg/kg-day): 3.25 g
Kidney/Body Weight (male, 50 mg/kg-day): 0.56%
Kidney/Brain Weight (male, 50 mg/kg-day): 143.1%
Liver Weight (male, 50 mg/kg-day): 17.05 g
Liver/Body Weight (male, 50 mg/kg-day): 2.92%
Liver/Brain Weight (male, 50 mg/kg-day): 754%
MPV (male, 50 mg/kg-day): 7.30 ± 0.36 fL
PT (male, 50 mg/kg-day): 15.14 s
Total BW change (male, 50 mg/kg-day): 307.16 g
Total Food Consumed (male, 50 mg/kg-day): 2229 g
% BW Gain (male, 100 mg/kg-day): 106.43%
% Diff, % BW Gain (male, 100 mg/kg-day): -6.20%
% Diff, Total BW change (male, 100 mg/kg-day): -9.44%
% Diff, Total Food Consumed (male, 100 mg/kg-day): -5.67%
A/G (male, 100 mg/kg-day): 0.87±0.20 ratio
ALB (male, 100 mg/kg-day): 3.34 ± 0.53 g/dL
ALPi (male, 100 mg/kg-day): 103.2±19.1 U/L
APTT (male, 100 mg/kg-day): 26.73 s
BUN (male, 100 mg/kg-day): 15.7 ± 3.2 mg/dL
CHOL (male, 100 mg/kg-day): 112.4 ± 25.0 mg/dL
GLOB (male, 100 mg/kg-day): 3.97 ± 0.63 g/dL
GLUC (male, 100 mg/kg-day): 171.8 ± 39.0 mg/dL
HCT (male, 100 mg/kg-day): 50.60±2.40%
HGB (male, 100 mg/kg-day): 15.71 ± 0.74 g/dL
Kidney Weight (male, 100 mg/kg-day): 3.38 g
Kidney/Body Weight (male, 100 mg/kg-day): 0.60%
Kidney/Brain Weight (male, 100 mg/kg-day): 156%
Liver Weight (male, 100 mg/kg-day): 18.32 g
Liver/Body Weight (male, 100 mg/kg-day): 3.24%
Liver/Brain Weight (male, 100 mg/kg-day): 843%
MPV (male, 100 mg/kg-day): 7.22 ± 0.38 fL
PT (male, 100 mg/kg-day): 15.16 s
Total BW change (male, 100 mg/kg-day): 294.89 g
Total Food Consumed (male, 100 mg/kg-day): 2241 g
% BW Gain (male, 200 mg/kg-day): 100.73%
% Diff, % BW Gain (male, 200 mg/kg-day): -11.23%
% Diff, Total BW change (male, 200 mg/kg-day): -14.29%
% Diff, Total Food Consumed (male, 200 mg/kg-day): -8.27%
A/G (male, 200 mg/kg-day): 0.91±0.04 ratio
ALB (male, 200 mg/kg-day): 3.55 ± 0.21 g/dL
ALPi (male, 200 mg/kg-day): 117.5±29.4 U/L
APTT (male, 200 mg/kg-day): 25.80 s
BUN (male, 200 mg/kg-day): 16.5 ± 2.0 mg/dL
CHOL (male, 200 mg/kg-day): 149.1 ± 27.7 mg/dL
GLOB (male, 200 mg/kg-day): 3.92 ± 0.23 g/dL
GLUC (male, 200 mg/kg-day): 163.2 ± 18.4 mg/dL
HCT (male, 200 mg/kg-day): 47.32±1.57%
HGB (male, 200 mg/kg-day): 14.88 ± 0.44 g/dL
Kidney Weight (male, 200 mg/kg-day): 3.60 g
Kidney/Body Weight (male, 200 mg/kg-day): 0.66%
Kidney/Brain Weight (male, 200 mg/kg-day): 168%
Liver Weight (male, 200 mg/kg-day): 20.17 g
Liver/Body Weight (male, 200 mg/kg-day): 3.70%
Liver/Brain Weight (male, 200 mg/kg-day): 944%
MPV (male, 200 mg/kg-day): 7.33 ± 0.31 fL
PT (male, 200 mg/kg-day): 15.32 s
Total BW change (male, 200 mg/kg-day): 279.08 g
Total Food Consumed (male, 200 mg/kg-day): 2179 g
